Laboratory results: paper PMC8780658 (Pharmaceutics, 2021)
Where a SMILES comes first, the peptide text is derived from it. The star is where a group is joined. Doxorubicin(3'-N) = COc1cccc2c1C(=O)c1c(O)c3c(c(O)c1C2=O)C[C@@](O)(C(=O)CO)C[C@@H]3O[C@H]1C[C@H](N*)[C@H](O)[C@H](C)O1; Propanoyl(3-maleimido) = O=C1C=CC(=O)N1CCC(=O)*; PEG2 = NCCOCCOCCC(=O)O

Key:
MDA-MB231 tumor [1] = experiment: Antitumor efficacy in MDA-MB231 tumor-bearing mice; type: in vivo, BALB/c nude mice; conditions: 3 mg/kg based on DOX contents, once every three days; saline group 1810.98 ± 544.56 mm^3
Experimental: (§1) Antitumor efficacy was assessed by measuring tumor volumes once every two days, calculated as largest diameter × smallest diameter^2 × 0.53, once every 2 days. The body weights of mice were also measured once every two days to assess in vivo toxicity. The in vivo toxicity of Al-ProD was further assessed by histological analyses. At 20 days after treatment, major organs were collected from mice and samples were stained with H&E following the manufacturer’s protocol. Then, organ sections were observed using an optical microscope.

H9C2 cells = experiment: Cellular uptake, confocal fluorescence imaging; type: cell-based, rat; conditions: 2 µM, 48 h, 37 °C, CLSM
Experimental: (§2) To assess intracellular behavior of Al-ProD via fluorescence imaging, 3 × 10^5 MDA-MB231 and H9C2 cells were seeded in confocal dishes. […] As a control, MDA-MB231 cells were pre-incubated for 2 h with cathepsin B-inhibitory siRNA that was pre-incubated with Lipofectamine 2000 for 40 min at room temperature. Then, cells were washed twice with DPBS, fixed with 5% paraformaldehyde for 15 min, and stained with 4′,6-diamidino-2-phenylindole (DAPI) for 10 min. Fluorescence imaging was performed using a Leica TCS SP8 confocal laser-scanning microscope (Leica Microsystems GmbH; Wetzlar, Germany). The DOX fluorescence in images was quantitatively analyzed using an Image Pro software (Media Cybernetic, Rockville, MD, USA).

[2] = molecular target: T1, mouse serum albumin (MSA) (Mus musculus, UniProt P07724); experiment: Albumin binding of Al-ProD, SDS-PAGE band shift; conditions: 100 µM compound, 700 µM albumin in PBS pH 7.4, room temperature, 1 h; native 12% SDS-PAGE, trans-UV; unbound band below 7 kDa
T1 construct: purchased Sigma Aldrich
Experimental: (§3) The albumin-binding property of Al-ProD was firstly evaluated. Briefly, to a human serum albumin (HSA), mouse serum albumin (MSA), or bovine serum albumin (BSA; 700 µM in PBS; pH 7.4), Al-ProD (100 µM) was added and incubated for 0, 5, and 60 min at room temperature. As a control, the HSA solution was pre-incubated with γ-maleimidobutyric acid for 1 h before adding Al-ProD. After incubation, samples were analyzed via native 12% SDS-PAGE gel. The gels were observed by trans-UV using the iBright^TM Imaging System (Invitrogen by Thermo Fisher Scientiric), and then stained with coomassie blue for visualizing proteins. The albumin-binding property of Al-ProD was further analyzed using reverse-phased high performance liquid chromatography (RP-HPLC; […]; Agilent Technologies) with ACN/H2O gradient from 80:20 to 20:80 for 30 min under a fluorescence detector (Ex/Em: 530/590 nm). […] Next, cathepsin B-specific cleavage of Al-ProD that was pre-incubated with HSA for 5 min (HSA-bound Al-ProD; 10 µM) was assessed by incubating with cathepsin B, cathepsin E, cathepsin D, cathepsin L, caspase-9, or caspase-3 (50 µg) at 37 °C for 24 h, followed by an analysis using HPLC with ACN/H2O gradient from 20:80 to 80:20 for 30 min.

[3] = molecular target: T2, bovine serum albumin (BSA) (Bos taurus, UniProt P02769); experiment: Albumin binding of Al-ProD, SDS-PAGE band shift; conditions: 100 µM compound, 700 µM albumin in PBS pH 7.4, room temperature, 1 h; native 12% SDS-PAGE, trans-UV; unbound band below 7 kDa
T2 construct: purchased Sigma Aldrich
Experimental: as §3

MDA-MB231 tumor [4] = experiment: Biodistribution in breast tumor models (NIRF imaging)
Experimental: The biodistribution of Al-ProD was assessed in breast tumor models, which were prepared by subcutaneous inoculation of 1 × 10^7 MBA-MB231 cells into the left flank of BALB/c nude mice. […] Then, noninvasive near-infrared fluorescence (NIRF) imaging was performed using an IVIS Lumina Series III system after 0 h, 3 h, 6 h, 12 h, 24 h, 48 h, and 72 h of injection. Fluorescence intensities in tumor regions were quantified via Living Image software. Mice were sacrificed after 12 h of injection for ex vivo imaging, followed by the collection of lung, liver, kidney, spleen, heart, and tumor tissues. Tumor tissues were also cut into 10 µm thick sections for histological assays. Slide-mounted tumor sections were analyzed by Leica TCS SP8 confocal laser-scanning microscope.

[5] = In vivo toxicity evaluation in MDA-MB231 tumor-bearing mice
Experimental: as §1

MDA-MB231 cells = experiment: Cellular uptake, confocal fluorescence imaging; type: cell-based, human; conditions: 2 µM, 48 h, 37 °C, CLSM
Experimental: as §2

[6] = Pharmacokinetics after intravenous injection; type: in vivo; conditions: BALB/c nude mice, i.v.
Experimental: Mice were bred under pathogen-free conditions at the Korea Institute of Science and Technology (KIST). All experiments with live animals were performed in compliance with the relevant laws and institutional guidelines of Institutional Animal Care and Use Committee (IACUC) in Korea Institute of Science and Technology (KIST), and IACUC approved the experiment (approved number of 2020-123). […] Then, each drug in the blood samples was extracted with DMSO by intense vortex and the samples were centrifuged at 2000 rpm for 40 min to obtain as a blood plasma. Finally, amount of free DOX and Al-ProD in samples was analyzed by IVIS Lumina Series III system (PerkinElmer; Waltham, MA, USA).

[7] = 3 mg/kg based on DOX contents, once every three days
[8] = 12 h after i.v. injection, 3 mg/kg based on DOX contents

T2 sequence (P02769 25-607): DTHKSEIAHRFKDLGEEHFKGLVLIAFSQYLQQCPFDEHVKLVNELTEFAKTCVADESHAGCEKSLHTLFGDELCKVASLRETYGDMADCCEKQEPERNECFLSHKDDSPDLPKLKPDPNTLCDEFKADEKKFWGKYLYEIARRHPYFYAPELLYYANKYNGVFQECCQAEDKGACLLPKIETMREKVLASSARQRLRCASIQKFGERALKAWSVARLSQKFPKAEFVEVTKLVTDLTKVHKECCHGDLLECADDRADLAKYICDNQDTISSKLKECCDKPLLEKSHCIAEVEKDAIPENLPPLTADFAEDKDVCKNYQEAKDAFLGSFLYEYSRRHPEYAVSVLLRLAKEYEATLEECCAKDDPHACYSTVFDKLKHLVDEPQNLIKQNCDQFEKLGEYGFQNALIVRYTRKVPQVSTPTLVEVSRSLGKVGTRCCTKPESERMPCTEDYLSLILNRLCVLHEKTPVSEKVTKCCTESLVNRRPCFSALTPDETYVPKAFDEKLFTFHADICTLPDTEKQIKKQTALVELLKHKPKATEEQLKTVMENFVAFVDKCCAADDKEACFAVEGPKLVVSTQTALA
T1 sequence (P07724 25-608): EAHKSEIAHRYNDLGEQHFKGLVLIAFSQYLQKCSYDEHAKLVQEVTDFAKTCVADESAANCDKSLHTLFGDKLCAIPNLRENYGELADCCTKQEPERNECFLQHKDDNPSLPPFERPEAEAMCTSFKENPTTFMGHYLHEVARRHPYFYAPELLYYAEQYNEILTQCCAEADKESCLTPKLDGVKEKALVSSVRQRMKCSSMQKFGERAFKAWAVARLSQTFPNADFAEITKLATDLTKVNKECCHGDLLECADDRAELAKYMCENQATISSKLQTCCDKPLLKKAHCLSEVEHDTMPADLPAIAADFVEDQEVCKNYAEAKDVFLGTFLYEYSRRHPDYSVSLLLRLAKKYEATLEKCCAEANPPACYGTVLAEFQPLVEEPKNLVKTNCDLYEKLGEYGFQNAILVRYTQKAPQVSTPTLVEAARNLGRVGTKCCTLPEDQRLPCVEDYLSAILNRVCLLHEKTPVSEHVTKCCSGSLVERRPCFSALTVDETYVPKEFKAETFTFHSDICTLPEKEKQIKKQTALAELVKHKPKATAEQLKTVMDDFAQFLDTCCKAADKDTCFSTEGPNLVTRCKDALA

For `COc1cccc2c1C(=O)c1c(O)c3c(c(O)c1C2=O)C[C@@](O)(C(=O)CO)C[C@@H]3O[C@H]1C[C@H](N)[C@H](O)[C@H](C)O1` [free DOX, doxorubicin], the “Tumor volume on day 20 after treatment” value (MDA-MB231 tumor [1]) was 580.25 ± 139.92 mm^3, the “Intracellular location of DOX fluorescence in H9C2 cells” value (H9C2 cells) was “clearly observed at the nuclei” and the “Band in SDS-PAGE gel after incubation with MSA (albumin binding)” value [2] was “not bound”. For the same molecule, the “Band in SDS-PAGE gel after incubation with BSA (albumin binding)” value [3] was “not bound”, the “Course of DOX fluorescence in tumor tissues” value (MDA-MB231 tumor [4]; mouse, in vivo, iv, 3 mg/kg) was “rapidly decreased for 6 h” and the “DOX fluorescence in whole tumor tissue sections (histology)” value (MDA-MB231 tumor [4]; mouse, in vivo, iv, 3 mg/kg) was “only a small quantity”. The “Mice survival during treatment” value [5, 7] was ≤ 18 days, the Median survival ([5]; 3 mg/kg once every three days, saline group 20 days) was 16 days and the “Normal organs stained with H&E” value ([5]; mouse, in vivo) was “structural abnormalities”. The “Intracellular location of DOX fluorescence in MDA-MB231 cells” value (MDA-MB231 cells) was “clearly observed at the nuclei”, the “In vivo half-life, T1/2” value ([6]; 3 mg/kg based on DOX contents, plasma fluorescence by IVIS) was 15 min and the In vivo half-life ([6]; 3 mg/kg, plasma fluorescence by IVIS) was 15 min.

For `COc1cccc2c1C(=O)c1c(O)c3c(c(O)c1C2=O)C[C@@](O)(C(=O)CO)C[C@@H]3O[C@H]1C[C@H](NC(=O)CNC(=O)[C@H](CCCNC(=N)N)NC(=O)[C@H](CCCNC(=N)N)NC(=O)[C@H](Cc2ccccc2)NC(=O)CCOCCOCCNC(=O)CCN2C(=O)C=CC2=O)[C@H](O)[C@H](C)O1` [Al-ProD, maleimide-PEG2-FRRG-DOX] ({Propanoyl(3-maleimido)-PEG2}-FRRG-{Doxorubicin(3'-N)}), the “DOX fluorescence from tumor tissues relative to free DOX, NIRF imaging” value (MDA-MB231 tumor [4]; [8]) was 3.33–4.08 fold, the “DOX fluorescence in tumor tissues relative to free DOX group, ex vivo imaging” value (MDA-MB231 tumor [4]; [8]) was 3.41–4.92 fold and the “DOX fluorescence in whole tumor tissue sections (histology)” value (MDA-MB231 tumor [4]; 12 h after i.v. injection, 3 mg/kg based on DOX contents, confocal microscopy) was “strong DOX fluorescence”. The “Time for which DOX fluorescence was retained in tumor tissues” value (MDA-MB231 tumor [4]; NIRF imaging, i.v., 3 mg/kg based on DOX contents) was 72 h, the “Body weights during treatment” value [5, 7] was “no significant body weight loss” and the “Mice survival during treatment” value [5, 7] was “over 25 days”. For the same molecule, the “Normal organs stained with H&E” value ([5]; day 20 after treatment) was “negligible toxicity”, the “AUC increase compared with free DOX” value ([6]; 3 mg/kg based on DOX contents) was “approximately sevenfold” and the “Time for which a detectable amount remained in the body” value ([6]; 3 mg/kg based on DOX contents) was 144 h.
